Where only a bound is given, the exact number is not on record here.

This experiment deals with T1, NTCP (Homo sapiens, UniProt Q14973).
T1 construct: expressed in transfected cells; host or cells: HepG2-hNTCP-C4
T1 sequence (Q14973 1-349): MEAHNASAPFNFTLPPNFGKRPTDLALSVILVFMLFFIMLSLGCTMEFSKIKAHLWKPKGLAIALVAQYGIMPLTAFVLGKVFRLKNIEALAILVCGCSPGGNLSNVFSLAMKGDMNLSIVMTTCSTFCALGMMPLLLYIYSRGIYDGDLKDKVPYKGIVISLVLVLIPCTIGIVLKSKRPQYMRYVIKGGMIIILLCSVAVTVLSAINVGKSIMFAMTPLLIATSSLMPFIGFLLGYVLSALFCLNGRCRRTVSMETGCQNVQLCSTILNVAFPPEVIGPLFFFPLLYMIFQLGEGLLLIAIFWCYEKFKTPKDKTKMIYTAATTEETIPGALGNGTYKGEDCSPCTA
Kind of experiment: Inhibition of the binding between PreS1 (FITC-labelled) and NTCP expressing cell lines, flow cytometry. As to conditions: for activity at 50 µM: 2 h, read-out: relative fluorescence intensity compared to the HBV-induced group (HBV PreS1) solely treated with PreS1, 50 µM compound, 20 nM PreS1, HepG2-hNTCP-C4 cell line, 4°C, 2 hours, the lower the value, the more inhibited the binding. The protocol:
HepG2-hNTCP-C4 cell line, a cell line expressing NTCP, was seeded in a 6 well plate at a density of 2×10^5/well and incubated at 4°C for 30 minutes when the confluency reached 80% after overnight incubation for 2 days. Thereafter, 20 nM PreS 1 (Myr-[…]-Lys(FITC)) and the compounds in Example 1, Examples 38 to 56 or the compound in Comparative Example 1 were treated by diluting in culture media at 4°C at a concentration of 50 µM respectively, and the media was suctioned after 2 hours, followed by washing 3 times with 4°C PBS. In order to take the cells off from the plate, 500 µl of 0.5 mM EDTA PBS solution was treated, and then incubation was performed at 37°C for 15 minutes to check whether the cells fell off through an optical microscope. After taking off the cells by pipetting, the cells were collected in a 1.5 ml tube and centrifuged (4000 rpm, 4°C, 3 min). After suctioning the supernatant, the pellet was washed 3 times with 4°C PBS, and then green fluorescence was measured via flow cytometry. In this case, taurocholic acid (TCA), a compound known as a substrate of NTCP to reduce the entry of HBV or HDV, was used as a positive control group.
In the graph at the top of FIG. 1, black (1) and red (2) indicate a negative control group with no treatment and an HBV-induced group (HBV preS1) solely treated with PreS1, respectively. Blue (HBV preS1+HBV entry inhibitor) (3) is the fluorescence value for each of Examples or Comparative Examples, evaluated that the closer to the negative control group, the more inhibited the binding between PreS1 and the NTCP cell line.
The experimental method was the same as in the Experimental Example 1-1, and 20 nM PreS1 and each compound were treated at 4 concentrations (0.2 µM, 2 µM, 10 µM, 50 µM).
With an expectation that there is a structure-activity relationship among compounds composed of bile acid and amino acids, for each of bile acids in Comparative Example 1 (lithocholic acid, LCA), Comparative Example 2 (ursodeoxycholic acid, UDCA), Comparative Example 3 (cholic acid, CA), Comparative Example 4 (hyodeoxycholic acid, HDCA), Comparative Example 5 (deoxycholic acid, DCA), and Comparative Example 6 (chenodeoxycholic acid, CDCA), an evaluation experiment was conducted on an ability to inhibit the binding between PreS1 and NTCP expressing cell lines, and also for Examples 1 (LCA-Ile) and Example 44 (LCA-Val) as well as the compounds in Example 2 (UDCA-Ile), Example 3 (UDCA-Val), Example 6 (CA-Ile), Example 7 (CA-Val), Example 8 (HDCA-Ile), Example 9 (HDCA-Val), Example 10 (DCA-Ile), Example 11 (DCA-Val), Example 14 (CDCA-Ile), and Example 15 (CDCA-Val) in which bile acid parts (lithocholic acid) of Example 1 (LCA-Ile) and Example 44 (LCA-Val) were substituted with other types of bile acids in Comparative Examples 2 to 6, an evaluation experiment was conducted on an ability to inhibit the binding between PreS1 and NTCP expressing cell lines. The experimental method was the same as in the Experimental Example 1-1, and 18 compounds in the Comparative Examples 1 to 6, Examples 1 to 3, Examples 6 to 11, Examples 14 to 15, and Example 44 were treated at a concentration of 50 µM along with 20 nM PreS 1. […]
In the Experimental Examples 1-4, it was determined whether there is additionally concentration dependence for Example 4 (UDCA-Trp), a compound with good inhibitory ability. […]
Background: In flow cytometry, cells or beads pass a laser one at a time.

Regarding `C[C@H](CCC(=O)N[C@@H](Cc1c[nH]c2ccccc12)C(=O)O)[C@H]1CC[C@H]2[C@@H]3[C@@H](O)C[C@@H]4C[C@H](O)CC[C@]4(C)[C@H]3CC[C@]12C` [Example 4, (S)-2-((R)-4-((3R,5S,7S,8R,9S,10S,13R,14S,17R)-3,7-dihydroxy-10,13-dimethyl-hexadecahydro-1H-cyclopenta[a]phenanthren-17-yl)pentanamido)-3-(1H-indol-3-yl)propanoic acid], where the note is “2 µM, 10 µM, 20 µM, 50 µM compound, 20 nM PreS1”, the “effect of inhibiting the binding between PreS1 and NTCP expressing cell lines by treatment concentration” value is on record as “concentration dependent”.

With `C[C@H](CCC(=O)N1CCCC1C(=O)O)[C@H]1CC[C@H]2[C@@H]3CC[C@@H]4C[C@H](O)CC[C@]4(C)[C@H]3CC[C@]12C` (stereo partly drawn) [Example 38, 1-((R)-4-((3R,5R,8R,9S,10S,13R,14S,17R)-3-hydroxy-10,13-dimethyl-hexadecahydro-1H-cyclopenta[a]phenanthren-17-yl)pentanoyl)pyrrolidine-2-carboxylic acid], the activity at 50 µM was ≤ 20%. The same measure, in the same setting: then `C[C@H](CCC(=O)N[C@@H](CS)C(=O)O)[C@H]1CC[C@H]2[C@@H]3CC[C@@H]4C[C@H](O)CC[C@]4(C)[C@H]3CC[C@]12C` [Example 40, (R)-2-((R)-4-((3R,5R,8R,9S,10S,13R,14S,17R)-3-hydroxy-10,13-dimethyl-hexadecahydro-1H-cyclopenta[a]phenanthren-17-yl)pentanamido)-3-mercaptopropanoic acid], with ≤ 20%; and `CC(C)C[C@H](NC(=O)CC[C@@H](C)[C@H]1CC[C@H]2[C@@H]3CC[C@@H]4C[C@H](O)CC[C@]4(C)[C@H]3CC[C@]12C)C(=O)O` [Example 47], with ≤ 20%. Same read-out and setting: then `CSCC[C@H](NC(=O)CC[C@@H](C)[C@H]1CC[C@H]2[C@@H]3CC[C@@H]4C[C@H](O)CC[C@]4(C)[C@H]3CC[C@]12C)C(=O)O` [Example 48, (S)-2-((R)-4-((3R,5R,8R,9S,10S,13R,14S,17R)-3-hydroxy-10,13-dimethyl-hexadecahydro-1H-cyclopenta[a]phenanthren-17-yl)pentanamido)-4-(methylthio)butanoic acid], with ≤ 20%.
